Results reported in patent publication US5693620A, “Plasmalopsychosines and plasmalocerebrosides” (Oncomembrane, Inc., priority 1994, dated 1997).
Entries after “also recorded” stand apart in the source; their conditions may differ. Each block holds one molecule with its values, some of them ahead of it.

Experiments:
[1] = tested on: mouse neuroblastoma Neuro-2A cells; settings: previously reported for a ganglioside effect; cited from earlier work
[2] = Acid lability of glycolipids (aqueous HCl/methanol, TLC mobility); format: physicochemical; settings: methanol-aqueous 0.1N HCl 1:1, 90° C., 10 min
Experimental: Acid-labile glycolipids were detected by hydrolysis of samples in methanol-aqueous 0.1N HCl (1:1, v/v) heated at 90° C. for 10 min, followed by Folch partitioning and TLC examination of lower phase. The glycolipid with high TLC mobility converting to the same mobility as normal cerebroside by this treatment was regarded as the acid-labile cerebroside.

neuroblastoma cell lines = assay: Cytotoxicity and growth inhibition in neuroblastoma cell lines; format: cell-based; settings: various neuroblastoma cell lines
[3] = as above; format: cell-based; settings: various neuroblastoma cell lines; read-out: concentration at which cell growth was inhibited, morphology changed and cells eventually died

Molecule: GT1b
- concentration required for ganglioside effect on neurite formation [1]: 200 µg/mL

- TLC mobility after acid hydrolysis [2]: did not show altered TLC mobility
Molecule: CCCCCCCCCCCCCCC[C@@H](O)C(=O)N[C@@H](CO[C@@H]1O[C@H](CO)[C@@H](O)[C@H](O)[C@H]1O)[C@H](O)/C=C/CC/C=C(\C)CCCCCCCCC [Cerebroside]

Molecule: CCCCCCCCCCCCC/C=C/[C@@H](O)[C@@H](N)CO[C@@H]1O[C@H](CO)[C@H](O)[C@H](O)[C@H]1O [psychosine, galactosylsphingosine]
- cytotoxic effect / growth inhibition (in words) (neuroblastoma cell lines): strong cytotoxic effect; also recorded: cytotoxic effects and inhibited cell growth even at very low doses
- MCC [3]: 10 to 20 µg/mL
